Source: patent US6838096B2, “Black soybean polysaccharides” (Taipei Veterans General Hospital, priority 2001, dated 2005)

Key:
[1] = tested on: BALB/c mice; assay: Myelopoietic activity in 5-FU-treated BALB/c mice with or without CT26 tumor implantation; format: in vivo; conditions: 5-FU 150 mg/kg i.p.
Method: BALB/c mice (6-10 weeks old, 20±5 g) were obtained and kept in specific pathogen-free conditions with a controlled temperature and humidity, under a 12-h light/dark cycle, and given free access to food and water. All experiments were performed in accordance with the guidelines provided in the NIH Guide for the Care and Use of Laboratory Animals (DHHS publication No. NIH 85-23, revised 1996). CT26 murine colon adenocarcinoma and BALB/c syngenic were maintained in RPMI 1640 medium (Life technology, Grand Island, N.Y.) supplemented with 10% heat-inactivated FCS (HyClone, Logan, Utah) and 2 mM L-glutamine (Sigma, St. Louis, Mo.), and cultured at 37° C. in a humidified atmosphere containing 5% CO2. These cells were subcutaneously implanted into left flank of BALB/c mice.
For non-tumor implanted experiments, 5-FU (150 mg/kg body weight) was intraperitoneally (i.p.) injected into BALB/c mice on day 0, and PSBS (100 or 400 mg/kg body weight) was given by oral or interperitoneal administration daily once for 5 consecutive days 6 h after 5-FU injection. Mice in control group received normal saline at the same time. While in tumor-implanted model, 1×10^6 CT26 tumor cells in PBS per mouse was s.c. injected in the left flank of mice. […]

[2] = tested on: 5-FU-treated mice

For `O=c1[nH]cc(F)c(=O)[nH]1` [5-FU, 5-fluorouracil], the number of leukocytes [1] was “significantly reduced”, the CFU-GM colony numbers ([2]; 5-FU alone, single dose 150 mg/kg i.p., day 11) was 41±5 colonies and the myelosuppression ([2]; mouse, in vivo, ip, 150 mg/kg) was “apparent myelosuppression”. For the same compound, the number of leukocytes ([2]; mouse, in vivo, ip, 150 mg/kg) was “significantly decreased”.
